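Tested at 5 concentrations; 48 h exposure; 96-well plates; endpoints linearly interpolated, else capped at highest concentration. GI50 is the concentration that inhibits growth by half.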 Activity calls are given as the source filed them. Rule as the data show it: active = GI50 up to about 1.1 µM and inactive = higher.
Columns and labels:
Test in all cases: NCI-60 cell line screen, 48 h
HCT-116 = test system: HCT-116
HT-29 = test system: HT-29
M14 = test system: M14
MDA-MB-231 = test system: MDA-MB-231
MDA-MB-435 = test system: MDA-MB-435
NCI-H226 = test system: NCI-H226
NCI-H460 = test system: NCI-H460
NCI/ADR-RES = test system: NCI/ADR-RES
OVCAR-4 = test system: OVCAR-4
OVCAR-5 = test system: OVCAR-5
RPMI-8226 = test system: RPMI-8226
RXF 393 = test system: RXF 393
SF-539 = test system: SF-539
SK-MEL-28 = test system: SK-MEL-28
SK-MEL-2 = test system: SK-MEL-2
SN12C = test system: SN12C
SNB-19 = test system: SNB-19
SW-620 = test system: SW-620
UACC-257 = test system: UACC-257
UO-31 = test system: UO-31

Row | SMILES | GI50 (HCT-116) | GI50 (HT-29) | GI50 (M14) | GI50 (MDA-MB-231) | GI50 (MDA-MB-435) | GI50 (NCI-H226) | GI50 (NCI-H460) | GI50 (NCI/ADR-RES) | GI50 (OVCAR-4) | GI50 (OVCAR-5) | GI50 (RPMI-8226) | GI50 (RXF 393) | GI50 (SF-539) | GI50 (SK-MEL-28) | GI50 (SK-MEL-2) | GI50 (SN12C) | GI50 (SNB-19) | GI50 (SW-620) | GI50 (UACC-257) | GI50 (UO-31)
1 | C[C@H](C(=O)N1C(=O)O[C@@H](c2ccccc2)[C@H]1C)[C@H](c1ccccc1)N(Cc1ccccc1)OC(=O)c1ccccc1 | 34.1 µM (inactive) | 26.4 µM (inactive) | 24.3 µM (inactive) | 94 µM (inactive) | 49.4 µM (inactive) | 38.4 µM (inactive) | 30.4 µM (inactive) | 30.3 µM (inactive) | 21 µM (inactive) | 68.1 µM (inactive) | 21.7 µM (inactive) | 73.8 µM (inactive) | 71.3 µM (inactive) | > 100 µM (inactive) | 22.1 µM (inactive) | 80.7 µM (inactive) | 35 µM (inactive) | 70.3 µM (inactive) | 20.9 µM (inactive) | 34.8 µM (inactive)
2 | COc1cc(/C=C2\CC/C(=C\c3cc(OC)c(O)c(OC)c3)C2=O)cc(OC)c1O | 1.83 µM (inactive) | 10.4 µM (inactive) | 2.19 µM (inactive) | 2.14 µM (inactive) | 1.39 µM (inactive) | 3.94 µM (inactive) | 1.89 µM (inactive) | 2.79 µM (inactive) | 1.69 µM (inactive) | 6.18 µM (inactive) | 1.04 µM (active) | 1.72 µM (inactive) | 3.61 µM (inactive) | 1.05 µM (active) | 0.667 µM (active) | 8.32 µM (inactive) | 3.69 µM (inactive) | 1.88 µM (inactive) | 2.03 µM (inactive) | 3.43 µM (inactive)
3 | COC1(CC[C@@H](C)COC2OC(CO)C(O)C(O)C2O)O[C@H]2C[C@H]3[C@@H]4CC=C5C[C@@H](OC6OC(CO)C(O)C(OC7OC(CO)C(O)C(O)C7O)C6OC6OC(C)C(O)C(O)C6O)CC[C@]5(C)[C@H]4CC[C@]3(C)[C@H]2[C@@H]1C (stereo not given in full) | 6.64 µM (inactive) | 4.67 µM (inactive) | 2.37 µM (inactive) | 0.885 µM (active) | 2.77 µM (inactive) | 9.95 µM (inactive) | 3.4 µM (inactive) | 16 µM (inactive) | 9.91 µM (inactive) | 7.67 µM (inactive) | 32.2 µM (inactive) | 5.71 µM (inactive) | 2.74 µM (inactive) | 5.45 µM (inactive) | 13.7 µM (inactive) | 10.2 µM (inactive) | 6.37 µM (inactive) | 2.6 µM (inactive) | 11 µM (inactive) | 4.5 µM (inactive)
4 | CN1CN(c2ccccc2)C2(CCNCC2)C1=O | > 100 µM (inactive) | > 100 µM (inactive) | > 100 µM (inactive) | > 100 µM (inactive) | > 100 µM (inactive) | > 100 µM (inactive) | > 100 µM (inactive) | > 100 µM (inactive) | > 100 µM (inactive) | > 100 µM (inactive) | > 100 µM (inactive) | > 100 µM (inactive) | > 100 µM (inactive) | > 100 µM (inactive) | > 100 µM (inactive) | > 100 µM (inactive) | > 100 µM (inactive) | > 100 µM (inactive) | > 100 µM (inactive) | > 100 µM (inactive)
5 | O=C(CN1c2ccccc2Sc2ccccc21)N1CCNCC1 | > 100 µM (inactive) | > 100 µM (inactive) | > 100 µM (inactive) | > 100 µM (inactive) | > 100 µM (inactive) | 78.7 µM (inactive) | > 100 µM (inactive) | > 100 µM (inactive) | > 100 µM (inactive) | > 100 µM (inactive) | > 100 µM (inactive) | 97.5 µM (inactive) | > 100 µM (inactive) | > 100 µM (inactive) | > 100 µM (inactive) | > 100 µM (inactive) | > 100 µM (inactive) | > 100 µM (inactive) | > 100 µM (inactive) | 95.5 µM (inactive)
6 | COc1ccc2oc3c(C)cc4c(OC)nnc(OC)c4c3c2c1 | 2.17 µM (inactive) | 4.57 µM (inactive) | 16.5 µM (inactive) | 22.9 µM (inactive) | 25.4 µM (inactive) | 30.8 µM (inactive) | 3.79 µM (inactive) | 18.4 µM (inactive) | 34.6 µM (inactive) | > 100 µM (inactive) | 4.93 µM (inactive) | 58.1 µM (inactive) | 7.89 µM (inactive) | 68.2 µM (inactive) | 82.4 µM (inactive) | 7.76 µM (inactive) | 13.6 µM (inactive) | 7.57 µM (inactive) | 42 µM (inactive) | 6.93 µM (inactive)
7 | COc1ccc([N+](=O)[O-])c2c(NCCCN(C)C)ccnc12 | 3.77 µM (inactive) | 3.66 µM (inactive) | 6.52 µM (inactive) | 8.3 µM (inactive) | 9.1 µM (inactive) | 7.31 µM (inactive) | 2.34 µM (inactive) | 15.8 µM (inactive) | 1.51 µM (inactive) | 5.9 µM (inactive) | 1.65 µM (inactive) | 2.31 µM (inactive) | 4.6 µM (inactive) | > 63.4 µM (inactive) | 2.05 µM (inactive) | 7.29 µM (inactive) | 8.3 µM (inactive) | 4.7 µM (inactive) | 3.26 µM (inactive) | 4.39 µM (inactive)
8 | C/C(=N/NC(=S)N1CCCCC1)c1ccccc1O | > 10 µM (inactive) | 23.1 µM (inactive) | > 31.6 µM (inactive) | > 100 µM (inactive) | > 31.6 µM (inactive) | > 31.6 µM (inactive) | 22.6 µM (inactive) | 28.2 µM (inactive) | > 31.6 µM (inactive) | > 31.6 µM (inactive) | 13.6 µM (inactive) | > 31.6 µM (inactive) | > 100 µM (inactive) | > 31.6 µM (inactive) | > 31.6 µM (inactive) | > 31.6 µM (inactive) | > 31.6 µM (inactive) | > 31.6 µM (inactive) | > 31.6 µM (inactive) | > 31.6 µM (inactive)
9 | O=C(N/N=C\c1ccc(Cl)cc1)Nc1cccc2ccccc12 | 3.04 µM (inactive) | 3.21 µM (inactive) | 7.16 µM (inactive) | 8.89 µM (inactive) | 2 µM (inactive) | 10.4 µM (inactive) | 3.24 µM (inactive) | > 25 µM (inactive) | 2.59 µM (inactive) | 25.8 µM (inactive) | 5.66 µM (inactive) | 3.01 µM (inactive) | 5.41 µM (inactive) | 22.5 µM (inactive) | 21.5 µM (inactive) | 9.51 µM (inactive) | 2.66 µM (inactive) | 3.41 µM (inactive) | 8.75 µM (inactive) | 2.1 µM (inactive)
10 | CC1(C)c2ccccc2C(O)C12CCC(=O)CC2 (stereo not given) | 9.2 µM (inactive) | > 100 µM (inactive) | > 100 µM (inactive) | > 100 µM (inactive) | > 100 µM (inactive) | > 100 µM (inactive) | > 100 µM (inactive) | > 100 µM (inactive) | > 100 µM (inactive) | > 100 µM (inactive) | > 100 µM (inactive) | 14.5 µM (inactive) | > 100 µM (inactive) | > 100 µM (inactive) | > 100 µM (inactive) | > 100 µM (inactive) | > 100 µM (inactive) | > 100 µM (inactive) | > 100 µM (inactive) | > 100 µM (inactive)
11 | Cc1cc(C)c(-c2no/c(=N\S(=O)(=O)c3ccc(Cl)cc3)o2)c(C)c1 | 51.1 µM (inactive) | > 100 µM (inactive) | > 100 µM (inactive) | > 100 µM (inactive) | > 100 µM (inactive) | > 100 µM (inactive) | > 100 µM (inactive) | 87.3 µM (inactive) | > 100 µM (inactive) | > 100 µM (inactive) | 37.2 µM (inactive) | > 100 µM (inactive) | > 100 µM (inactive) | > 100 µM (inactive) | 34 µM (inactive) | > 100 µM (inactive) | > 100 µM (inactive) | > 100 µM (inactive) | 31.1 µM (inactive) | > 100 µM (inactive)
12 | C[C@@H](CO)C1=CC(C#C[Si](C)(C)C)N(C(=O)Oc2ccccc2)c2ccccc21 (stereo not given in full) | 15.3 µM (inactive) | 16 µM (inactive) | 16.3 µM (inactive) | 17.7 µM (inactive) | 3.45 µM (inactive) | 20 µM (inactive) | 18.1 µM (inactive) | 11.8 µM (inactive) | 12.6 µM (inactive) | 19.8 µM (inactive) | 24.9 µM (inactive) | 5.86 µM (inactive) | 17.8 µM (inactive) | 18.2 µM (inactive) | 16.9 µM (inactive) | 16.8 µM (inactive) | 27.2 µM (inactive) | 24 µM (inactive) | 16.8 µM (inactive) | 14.7 µM (inactive)
